Data as given in patent publication US11884676B2, “Substituted pyrimido[1,2-b]pyridazines as positive allosteric modulators of the muscarinic acetylcholine receptor M4” (Vanderbilt University, priority 2020, dated 2024).

Target: T1, Human M4 (Homo sapiens, UniProt P08173)
T1 construct: expressed in transfected cells
T1 sequence (P08173 1-479): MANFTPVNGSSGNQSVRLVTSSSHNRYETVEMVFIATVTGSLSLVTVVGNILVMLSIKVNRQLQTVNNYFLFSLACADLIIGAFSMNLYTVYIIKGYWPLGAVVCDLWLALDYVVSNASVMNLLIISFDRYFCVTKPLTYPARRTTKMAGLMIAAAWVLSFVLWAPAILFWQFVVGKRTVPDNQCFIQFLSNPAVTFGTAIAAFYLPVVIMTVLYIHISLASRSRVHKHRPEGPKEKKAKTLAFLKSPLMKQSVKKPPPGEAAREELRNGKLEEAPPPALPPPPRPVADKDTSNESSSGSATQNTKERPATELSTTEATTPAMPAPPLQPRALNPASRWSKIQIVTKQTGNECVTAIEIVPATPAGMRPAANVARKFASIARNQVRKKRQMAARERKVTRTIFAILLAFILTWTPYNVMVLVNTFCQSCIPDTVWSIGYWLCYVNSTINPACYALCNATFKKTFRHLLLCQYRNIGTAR
Experiment: mAChR M4 cell-based functional assay (calcium flux, PAM mode)
Conditions: hM4-Gqi5 CHO-K1 cells; for Emax at 30 µM: CHO-K1, % ACh maximum at 30 μM; for EC50: concentration-dependent increase in the EC20 acetylcholine response
Outline: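 CHO-K1 cells stably co-expressing human M4 and chimeric Gqi5, Fluo-4 loaded; compound added first (11-point, 1:3 CRC), then EC20 acetylcholine at 144 s and EC80 at 230 s. PAM activity read on FDSS as concentration-dependent increase of EC20 ACh calcium response; EC50 and Emax from four-parameter logistic fit.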

## Cc1cc2nccc(=O)n2nc1N1CC[C@@H](Oc2ccc3c(c2)CCOC3)[C@H](F)C1 [Compound 54, 7-((3R,4R)-3-fluoro-4-(isochroman-6-yloxy)piperidin-1-yl)-8-methyl-4H-pyrimido[1,2-b]pyridazin-4-one]
  Emax at 30 µM: 89%
  EC50: 319 nM

## Cc1cc2nccc(=O)n2nc1N1CC[C@@H](Oc2ccc3c(c2)OCCCO3)[C@H](F)C1 [Compound 55, 7-((3R,4R)-4-((3,4-dihydro-2H-benzo[b][1,4]dioxepin-7-yl)oxy)-3-fluoropiperidin-1-yl)-8-methyl-4H-pyrimido[1,2-b]pyridazin-4-one]
  Emax at 30 µM: 80%
  EC50: 135 nM

## Cc1cc2nccc(=O)n2nc1N1CC[C@@H](Oc2ccc3c(c2)CCO3)[C@H](F)C1 [Compound 56, 7-((3R,4R)-4-((2,3-dihydrobenzofuran-5-yl)oxy)-3-fluoropiperidin-1-yl)-8-methyl-4H-pyrimido[1,2-b]pyridazin-4-one]
  Emax at 30 µM: 80%
  EC50: 206 nM

## Cc1cc2nccc(=O)n2nc1N1CC[C@@H](Oc2ccc3c(c2)OCCC3)[C@H](F)C1 [Compound 57, 7-((3R,4R)-4-(chroman-7-yloxy)-3-fluoropiperidin-1-yl)-8-methyl-4H-pyrimido[1,2-b]pyridazin-4-one]
  Emax at 30 µM: 83%
  EC50: 149 nM

## [2H]C1(Oc2ccc3c(c2)OCO3)CCN(c2nn3c(=O)cc(C)nc3cc2C)CC1 [Compound 58, 7-(4-(benzo[d][1,3]dioxol-5-yloxy)piperidin-1-yl-4-d)-2,8-dimethyl-4H-pyrimido[1,2-b]pyridazin-4-one]
  Emax at 30 µM: 88%
  EC50: 52 nM

## [2H]C1(Oc2ccc3c(c2)OCCCO3)CCN(c2nn3c(=O)cc(C)nc3cc2C)CC1 [Compound 59, 7-(4-((3,4-dihydro-2H-benzo[b][1,4]dioxepin-7-yl)oxy)piperidin-1-yl-4-d)-2,8-dimethyl-4H-pyrimido[1,2-b]pyridazin-4-one]
  Emax at 30 µM: 85%
  EC50: 59 nM

## [2H]C1(Oc2ccc3c(c2)OCCO3)CCN(c2nn3c(=O)c(C)c(C)nc3cc2C)CC1 [Compound 60, 7-(4-((2,3-dihydrobenzo[b][1,4]dioxin-6-yl)oxy)piperidin-1-yl-4-d)-2,3,8-trimethyl-4H-pyrimido[1,2-b]pyridazin-4-one]
  Emax at 30 µM: 91%
  EC50: 28 nM

## [2H]C1(Oc2ccc3c(c2)OCCO3)CCN(c2nn3c(=O)cc(C(F)F)nc3cc2C)CC1 [Compound 61, 2-(difluoromethyl)-7-(4-((2,3-dihydrobenzo[b][1,4]dioxin-6-yl)oxy)piperidin-1-yl-4-d)-8-methyl-4H-pyrimido[1,2-b]pyridazin-4-one]
  Emax at 30 µM: 94%
  EC50: 12 nM

## [2H]C1(Oc2ccc3c(c2)OCCO3)CCN(c2nn3c(=O)cc(C)nc3cc2C)CC1 [Compound 62, 7-(4-((2,3-dihydrobenzo[b][1,4]dioxin-6-yl)oxy)piperidin-1-yl-4-d)-2,8-dimethyl-4H-pyrimido[1,2-b]pyridazin-4-one]
  Emax at 30 µM: 99%
  EC50: 47 nM

## [2H]C1(Oc2ccc3c(c2)OCO3)CCN(c2nn3c(=O)cc(C(F)(F)F)nc3cc2C)CC1 [Compound 63, 7-(4-(benzo[d][1,3]dioxol-5-yloxy)piperidin-1-yl-4-d)-8-methyl-2-(trifluoromethyl)-4H-pyrimido[1,2-b]pyridazin-4-one]
  Emax at 30 µM: 102%
  EC50: 342 nM

## [2H]C1(Oc2ccc3c(c2)OCCCO3)CCN(c2nn3c(=O)cc(C(F)(F)F)nc3cc2C)CC1 [Compound 64, 7-(4-((3,4-dihydro-2H-benzo[b][1,4]dioxepin-7-yl)oxy)piperidin-1-yl-4-d)-8-methyl-2-(trifluoromethyl)-4H-pyrimido[1,2-b]pyridazin-4-one]
  Emax at 30 µM: 104%
  EC50: 172 nM

## [2H]C1(Oc2ccc3c(c2)OC([2H])([2H])C([2H])([2H])O3)CCN(c2nn3c(=O)cc(C(F)F)nc3cc2C)CC1 [Compound 65, 2-(difluoromethyl)-7-(4-((2,3-dihydrobenzo[b][1,4]dioxin-6-yl-2,2,3,3-d4)oxy)piperidin-1-yl-4-d)-8-methyl-4H-pyrimido[1,2-b]pyridazin-4-one]
  Emax at 30 µM: 108%
  EC50: 20 nM

## [2H]C1(Oc2ccc3c(c2)OCO3)CCN(c2nn3c(=O)cc(C(F)F)nc3cc2C)CC1 [Compound 66, 7-(4-(benzo[d][1,3]dioxol-5-yloxy)piperidin-1-yl-4-d)-2-(difluoromethyl)-8-methyl-4H-pyrimido[1,2-b]pyridazin-4-one]
  Emax at 30 µM: 108%
  EC50: 17 nM

## [2H]C1(Oc2ccc3c(c2)OCCCO3)CCN(c2nn3c(=O)cc(C(F)F)nc3cc2C)CC1 [Compound 67, 2-(difluoromethyl)-7-(4-((3,4-dihydro-2H-benzo[b][1,4]dioxepin-7-yl)oxy)piperidin-1-yl-4-d)-8-methyl-4H-pyrimido[1,2-b]pyridazin-4-one]
  Emax at 30 µM: 109%
  EC50: 17 nM

## [2H]C1(Oc2ccc3c(c2)OCO3)CCN(c2nn3c(=O)ccnc3cc2C)CC1 [Compound 68, 7-(4-(benzo[d][1,3]dioxol-5-yloxy)piperidin-1-yl-4-d)-8-methyl-4H-pyrimido[1,2-b]pyridazin-4-one]
  Emax at 30 µM: 91%
  EC50: 288 nM

## [2H]C1(Oc2ccc3c(c2)OC([2H])([2H])C([2H])([2H])O3)CCN(c2nn3c(=O)ccnc3c(C)c2C)CC1 [Compound 69, 7-(4-((2,3-dihydrobenzo[b][1,4]dioxin-6-yl-2,2,3,3-d4)oxy)piperidin-1-yl-4-d)-8,9-dimethyl-4H-pyrimido[1,2-b]pyridazin-4-one]
  Emax at 30 µM: 97%
  EC50: 20 nM

## [2H]C1(Oc2ccc3c(c2)OCCO3)CCN(c2nn3c(=O)ccnc3c(C)c2C)CC1 [Compound 70, 7-(4-((2,3-dihydrobenzo[b][1,4]dioxin-6-yl)oxy)piperidin-1-yl-4-d)-8,9-dimethyl-4H-pyrimido[1,2-b]pyridazin-4-one]
  Emax at 30 µM: 96%
  EC50: 16 nM

## Cc1c(N2CCC(Oc3ccc4c(c3)OCCO4)CC2)nn2c(=O)ccnc2c1C [Compound 71, 7-(4-((2,3-dihydrobenzo[b][1,4]dioxin-6-yl)oxy)piperidin-1-yl)-8,9-dimethyl-4H-pyrimido[1,2-b]pyridazin-4-one]
  Emax at 30 µM: 95%
  EC50: 21 nM

## Cc1cc(=O)n2nc(N3CCC(Oc4ccc5c(c4)C(=O)NCC5)CC3)c(C)cc2n1 [Compound 72, 2,8-dimethyl-7-(4-((1-oxo-1,2,3,4-tetrahydroisoquinolin-7-yl)oxy)piperidin-1-yl)-4H-pyrimido[1,2-b]pyridazin-4-one]
  Emax at 30 µM: 74%
  EC50: 1540 nM

## Cc1cc(=O)n2nc(N3CCC(Oc4ccc5c(c4)C(=O)N(C)CC5)CC3)c(C)cc2n1 [Compound 73, 2,8-dimethyl-7-(4-((2-methyl-1-oxo-1,2,3,4-tetrahydroisoquinolin-7-yl)oxy)piperidin-1-yl)-4H-pyrimido[1,2-b]pyridazin-4-one]
  Emax at 30 µM: 85%
  EC50: 2630 nM

## Cc1cc(=O)n2nc(N3CCC(Oc4ccc5c(c4)CCN(C)C5=O)CC3)c(C)cc2n1 [Compound 74, 2,8-dimethyl-7-(4-((2-methyl-1-oxo-1,2,3,4-tetrahydroisoquinolin-6-yl)oxy)piperidin-1-yl)-4H-pyrimido[1,2-b]pyridazin-4-one]
  Emax at 30 µM: 84%
  EC50: 2360 nM

## COc1ncc(OC2CCN(c3nn4c(=O)ccnc4cc3C)CC2)cc1C [Compound 75, 7-(4-((6-methoxy-5-methylpyridin-3-yl)oxy)piperidin-1-yl)-8-methyl-4H-pyrimido[1,2-b]pyridazin-4-one]
  Emax at 30 µM: 84%
  EC50: 1510 nM

## COCc1ccc(OC2CCN(c3nn4c(=O)ccnc4cc3C)CC2)cn1 [Compound 76, 7-(4-((6-(methoxymethyl)pyridin-3-yl)oxy)piperidin-1-yl)-8-methyl-4H-pyrimido[1,2-b]pyridazin-4-one]
  Emax at 30 µM: 60%
  EC50: > 10000 nM

## Cc1ccc(OC2CCN(c3nn4c(=O)ccnc4c(C)c3C)CC2)cc1 [Compound 77, 8,9-dimethyl-7-(4-(p-tolyloxy)piperidin-1-yl)-4H-pyrimido[1,2-b]pyridazin-4-one]
  Emax at 30 µM: 101%
  EC50: 91 nM

## Cc1ccc(OC2CCN(c3nn4c(=O)cc(C(F)F)nc4c(C)c3C)CC2)cn1 [Compound 78, 2-(difluoromethyl)-8,9-dimethyl-7-(4-((6-methylpyridin-3-yl)oxy)piperidin-1-yl)-4H-pyrimido[1,2-b]pyridazin-4-one]
  Emax at 30 µM: 95%
  EC50: 76 nM

## Cc1c(N2CCC(Oc3ccc(Cl)cc3)CC2)nn2c(=O)cc(C(F)F)nc2c1C [Compound 79, 7-(4-(4-chlorophenoxy)piperidin-1-yl)-2-(difluoromethyl)-8,9-dimethyl-4H-pyrimido[1,2-b]pyridazin-4-one]
  Emax at 30 µM: 76%
  EC50: 358 nM

## Cc1c(N2CCC(Oc3ccc(C(F)(F)F)cc3)CC2)nn2c(=O)ccnc2c1C [Compound 80, 8,9-dimethyl-7-(4-(4-(trifluoromethyl)phenoxy)piperidin-1-yl)-4H-pyrimido[1,2-b]pyridazin-4-one]
  Emax at 30 µM: 76%
  EC50: 2180 nM
